According to ChEMBL document CHEMBL1122795 (J Med Chem, 1984):

Experiments:
[1] = system: Mus musculus; assay: Effective dose (p.o.) required to reverse ptosis induced by tetrabenazine in mouse; format: functional; conditions: po
[2] = species on record: Mus musculus; assay: Effective dose against oxotremorine induced lacrimation; format: functional
[3] = species on record: Mus musculus; assay: Effective dose against oxotremorine induced tremor; format: functional
[4] = species on record: Canis familiaris; assay: Inhibition of the response to phenethylamine was measured; format: functional; conditions: Canis lupus familiaris
[5] = system: Rattus norvegicus; assay: Effective dose (p.o.) required to reverse ptosis induced by tetrabenazine in rat; format: functional; conditions: po
[6] = Acute toxicity (p.o.) after 24 hr was determined in mouse; format: organism-based; conditions: in vivo, po
[7] = species on record: Canis familiaris; assay: Potentiation of the response to norepinephrine was measured; format: functional; conditions: Canis lupus familiaris
[8] = target: T1, Monoamine oxidase (Rattus norvegicus, UniProt P19643+P21396); assay: In vitro inhibitory concentration against monoamine oxidase with 5-HT as substrate; format: protein assay; conditions: mouse
T1 sequence (P19643 whole entry): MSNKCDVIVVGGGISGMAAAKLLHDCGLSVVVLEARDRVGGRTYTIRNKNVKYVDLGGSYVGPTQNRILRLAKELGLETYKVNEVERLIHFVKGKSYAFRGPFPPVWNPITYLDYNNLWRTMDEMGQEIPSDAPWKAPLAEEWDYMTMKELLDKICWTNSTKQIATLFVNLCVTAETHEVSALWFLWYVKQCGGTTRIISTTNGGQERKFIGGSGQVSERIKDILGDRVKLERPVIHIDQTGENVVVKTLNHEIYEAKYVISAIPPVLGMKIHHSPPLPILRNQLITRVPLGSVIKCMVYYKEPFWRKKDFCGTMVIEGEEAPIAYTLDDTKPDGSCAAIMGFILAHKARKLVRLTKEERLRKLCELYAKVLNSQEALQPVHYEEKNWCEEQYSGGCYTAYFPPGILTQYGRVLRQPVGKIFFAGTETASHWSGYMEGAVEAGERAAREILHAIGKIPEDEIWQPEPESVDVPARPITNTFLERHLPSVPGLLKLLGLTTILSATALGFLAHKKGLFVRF
T1 sequence (P21396 whole entry): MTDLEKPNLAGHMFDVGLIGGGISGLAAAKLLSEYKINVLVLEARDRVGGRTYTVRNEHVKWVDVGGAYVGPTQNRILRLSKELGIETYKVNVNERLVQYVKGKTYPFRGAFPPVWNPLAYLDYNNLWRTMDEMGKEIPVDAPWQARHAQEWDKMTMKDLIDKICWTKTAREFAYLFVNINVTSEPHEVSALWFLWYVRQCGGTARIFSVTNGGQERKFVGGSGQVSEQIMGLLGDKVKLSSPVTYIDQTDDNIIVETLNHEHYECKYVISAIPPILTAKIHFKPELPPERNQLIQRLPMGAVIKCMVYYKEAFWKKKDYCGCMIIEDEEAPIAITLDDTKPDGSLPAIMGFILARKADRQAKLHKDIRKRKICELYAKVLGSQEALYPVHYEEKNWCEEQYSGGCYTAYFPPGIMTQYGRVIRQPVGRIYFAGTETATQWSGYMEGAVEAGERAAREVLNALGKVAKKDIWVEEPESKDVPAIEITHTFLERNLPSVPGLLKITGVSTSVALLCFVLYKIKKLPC

Row | Compound | ED50 [1] [mg/kg] | ED50 [2] [mg/kg] | ED50 [3] [mg/kg] | ED50 [4] [mg/kg] | ED50 [5] [mg/kg] | LD50 at 24 h [6] [mg/kg] | ED50 [7] [mg/kg] | KI50 [8] [M l-1]
1 | CN1CCC2C3c4ccccc4C(c4ccccc43)C2C1.Cl (stereo not drawn) | 1 | 36 | 100 |  |  |  |  | 
2 | CN(C)CCC=C1c2ccccc2CCc2ccccc21 [AMITRIPTYLINE] | 1.3 | 27 | 21 | 1.1 | 12 | 177 | 1 | 
3 | CN(C)CCCN1c2ccccc2CCc2ccccc21 [IMIPRAMINE] | 1.3 | 130 | 70 | 1.5 | 4.12 |  | 3 | 
4 | Cl.c1ccc2c(c1)C1c3ccccc3C2C2CNCCC12 (stereo not drawn) | 0.41 | > 243 | > 243 | 1.2 | 0.5 |  | 0.22 | > 0.001
